Assay results published in patent US20020137929A1, “1 - (3-heterocyclylphenyl) isothiourea, -isourea, -guanidine and -amidine herbicidal agents” (Intellectual Property Department, BASF Aktiengesellschaft, priority 1998, published 2002).

Tests used:
AMBEL (Ragweed, Common) [1] = assay: Postemergence herbicidal evaluation; format: in vivo, Ambrosia artemisifolia
Outline: (§1)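 Rate range approx. 0.0156–0.500 kg/ha. Foliar application at 40 psi to ~2-week seedlings; surfactant 0.5% TWEEN 20 in 50/50 acetone/water. Evaluation 4–5 wk post-treatment by 0–9 visual injury score, means of replicate tests.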

CASOB (Sicklepod) [2] = assay: Postemergence herbicidal evaluation; format: in vivo, Cassia obtusifolia
Outline: as §1

[3] = test system: CHEAL (Lambsquarters, Common); assay: Postemergence herbicidal evaluation; format: in vivo, Chenopodium album
Outline: as §1

[4] = test system: IPOHE (Morningglory, Ivyleaf); assay: Postemergence herbicidal evaluation; format: in vivo, Ipomoea hederacea
Outline: as §1

ECHCG (Barnyardgrass) = assay: Postemergence herbicidal evaluation; format: in vivo, Echinochloa crus-galli
Outline: as §1

[5] = test system: GLXMAW (Soybean, Williams); assay: Postemergence herbicidal evaluation; format: in vivo, Glycine max, (L.) Merr. cv Williams
Outline: as §1

[6] = test system: TRZAWR (Wheat, Winter, cv Riband); assay: Postemergence herbicidal evaluation; format: in vivo, Triticum aestivum
Outline: as §1

ABUTH (Velvetleaf) = assay: Preemergence herbicidal evaluation; format: in vivo, Abutilon theophrasti; details: rated 4-5 weeks after treatment
Outline: (§2)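 In this greenhouse assay, monocot and dicot seeds are planted in soil and treated prior to emergence with an aqueous acetone spray (about 0.0156-0.500 kg/ha). Plants are assessed visually against control on a 0-9 scale after 4-5 weeks.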

AMBEL (Ragweed, Common) [7] = assay: Preemergence herbicidal evaluation; format: in vivo, Ambrosia artemisifolia; details: rated 4-5 weeks after treatment
Outline: as §2

CASOB (Sicklepod) [8] = assay: Preemergence herbicidal evaluation; format: in vivo, Cassia obtusifolia; details: rated 4-5 weeks after treatment
Outline: as §2

[9] = test system: CHEAL (Lambsquarters, Common); assay: Preemergence herbicidal evaluation; format: in vivo, Chenopodium album; details: rated 4-5 weeks after treatment
Outline: as §2

[10] = test system: IPOHE (Morningglory, Ivyleaf); assay: Preemergence herbicidal evaluation; format: in vivo, Ipomoea hederacea; details: rated 4-5 weeks after treatment
Outline: as §2

[11] = test system: GLXMAW (Soybean, Williams); assay: Preemergence herbicidal evaluation; format: in vivo, Glycine max, (L.) Merr. cv Williams; details: rated 4-5 weeks after treatment
Outline: as §2

ORYSAT (Rice, Tebonnet) = assay: Preemergence herbicidal evaluation; format: in vivo, Oryza sativa, (L.) Tebonnet; details: rated 4-5 weeks after treatment
Outline: as §2

MOOVA (Monochoria) = assay: Preemergence weed control under flooded paddy conditions; format: in vivo, Monochoria vaginalis; details: rated 3-4 weeks after treatment
Outline: (§3)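 Silt loam, seeds in top 0.5 cm; flood held 1.5-3 cm; test cpd as acetone/water 50/50 into flood water, ~0.0313-0.500 kg/ha a.i.; greenhouse 3-4 wk; visual 0-9 score vs control.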

[12] = test system: SAGPY (Arrowhead (Pygmaea)); assay: as above; format: in vivo, Sagittaria pygmaea; details: rated 3-4 weeks after treatment
Outline: as §3

C=CCN1C(=O)C(CC(=O)O)SC1=Nc1cc(-n2c(=O)cc(C(F)(F)F)n(C)c2=O)c(F)cc1Cl (stereo not shown) [Compound 62, 3-Allyl-2-{{2-chloro-5-[3,6-dihydro-3-methyl-2,6-dioxo-4-(trifluoromethyl)-1(2H)-pyrimidinyl]-4-fluorophenyl}imino}-4-oxo-5-thiazolidineacetic acid]
Postemergence herbicidal rating AMBEL (AMBEL (Ragweed, Common) [1]; Rate 0.0158 kg/ha): 9.0 | Postemergence herbicidal rating AMBEL (AMBEL (Ragweed, Common) [1]; Rate 0.0315 kg/ha): 7.0 | Postemergence herbicidal rating AMBEL (AMBEL (Ragweed, Common) [1]; Rate 0.0630 kg/ha): 9.0 | Postemergence herbicidal rating CASOB (CASOB (Sicklepod) [2]; Rate 0.0158 kg/ha): 1.0 | Postemergence herbicidal rating CASOB (CASOB (Sicklepod) [2]; Rate 0.0315 kg/ha): 2.0 | Postemergence herbicidal rating CASOB (CASOB (Sicklepod) [2]; Rate 0.0630 kg/ha): 6.0 | Postemergence herbicidal rating CHEAL ([3]; Rate 0.0158 kg/ha): 9.0 | Postemergence herbicidal rating CHEAL ([3]; Rate 0.0315 kg/ha): 9.0 | Postemergence herbicidal rating CHEAL ([3]; Rate 0.0630 kg/ha): 9.0 | Postemergence herbicidal rating IPOHE ([4]; Rate 0.0158 kg/ha): 9.0 | Postemergence herbicidal rating IPOHE ([4]; Rate 0.0315 kg/ha): 9.0 | Postemergence herbicidal rating IPOHE ([4]; Rate 0.0630 kg/ha): 9.0 | Postemergence herbicidal rating ECHCG (ECHCG (Barnyardgrass); Rate 0.0158 kg/ha): 4.0 | Postemergence herbicidal rating ECHCG (ECHCG (Barnyardgrass); Rate 0.0315 kg/ha): 6.0 | Postemergence herbicidal rating ECHCG (ECHCG (Barnyardgrass); Rate 0.0630 kg/ha): 7.0 | Postemergence herbicidal rating GLXMAW ([5]; Rate 0.0158 kg/ha): 7.5 | Postemergence herbicidal rating GLXMAW ([5]; Rate 0.0315 kg/ha): 7.5 | Postemergence herbicidal rating GLXMAW ([5]; Rate 0.0630 kg/ha): 8.5 | Postemergence herbicidal rating TRZAWR ([6]; Rate 0.0158 kg/ha): 5.0 | Postemergence herbicidal rating TRZAWR ([6]; Rate 0.0315 kg/ha): 5.5 | Postemergence herbicidal rating TRZAWR ([6]; Rate 0.0630 kg/ha): 7.0 | Preemergence herbicidal rating ABUTH (ABUTH (Velvetleaf); rate 0.0156 kg/ha): 4.0 | Preemergence herbicidal rating ABUTH (ABUTH (Velvetleaf); rate 0.0313 kg/ha): 7.0 | Preemergence herbicidal rating ABUTH (ABUTH (Velvetleaf); rate 0.0625 kg/ha): 9.0 | Preemergence herbicidal rating ABUTH (ABUTH (Velvetleaf); rate 0.1250 kg/ha): 9.0 | Preemergence herbicidal rating ABUTH (ABUTH (Velvetleaf); rate 0.2500 kg/ha): 9.0 | Preemergence herbicidal rating AMBEL (AMBEL (Ragweed, Common) [7]; rate 0.0156 kg/ha): 2.0 | Preemergence herbicidal rating AMBEL (AMBEL (Ragweed, Common) [7]; rate 0.0313 kg/ha): 5.0 | Preemergence herbicidal rating AMBEL (AMBEL (Ragweed, Common) [7]; rate 0.0625 kg/ha): 7.0 | Preemergence herbicidal rating AMBEL (AMBEL (Ragweed, Common) [7]; rate 0.1250 kg/ha): 9.0 | Preemergence herbicidal rating AMBEL (AMBEL (Ragweed, Common) [7]; rate 0.2500 kg/ha): 7.0 | Preemergence herbicidal rating CASOB (CASOB (Sicklepod) [8]; rate 0.0156 kg/ha): 0.0 | Preemergence herbicidal rating CASOB (CASOB (Sicklepod) [8]; rate 0.0313 kg/ha): 0.0 | Preemergence herbicidal rating CASOB (CASOB (Sicklepod) [8]; rate 0.0625 kg/ha): 1.0 | Preemergence herbicidal rating CASOB (CASOB (Sicklepod) [8]; rate 0.1250 kg/ha): 1.0 | Preemergence herbicidal rating CASOB (CASOB (Sicklepod) [8]; rate 0.2500 kg/ha): 1.0 | Preemergence herbicidal rating CHEAL ([9]; rate 0.0156 kg/ha): 7.0 | Preemergence herbicidal rating CHEAL ([9]; rate 0.0313 kg/ha): 9.0 | Preemergence herbicidal rating CHEAL ([9]; rate 0.0625 kg/ha): 9.0 | Preemergence herbicidal rating CHEAL ([9]; rate 0.1250 kg/ha): 9.0 | Preemergence herbicidal rating CHEAL ([9]; rate 0.2500 kg/ha): 9.0 | Preemergence herbicidal rating IPOHE ([10]; rate 0.0156 kg/ha): 0.0 | Preemergence herbicidal rating IPOHE ([10]; rate 0.0313 kg/ha): 3.0 | Preemergence herbicidal rating IPOHE ([10]; rate 0.0625 kg/ha): 5.0 | Preemergence herbicidal rating IPOHE ([10]; rate 0.1250 kg/ha): 7.0 | Preemergence herbicidal rating IPOHE ([10]; rate 0.2500 kg/ha): 9.0 | Preemergence herbicidal rating GLXMAW ([11]; rate 0.0156 kg/ha): 0.0 | Preemergence herbicidal rating GLXMAW ([11]; rate 0.0313 kg/ha): 0.0 | Preemergence herbicidal rating GLXMAW ([11]; rate 0.0625 kg/ha): 1.0 | Preemergence herbicidal rating GLXMAW ([11]; rate 0.1250 kg/ha): 2.0 | Preemergence herbicidal rating GLXMAW ([11]; rate 0.2500 kg/ha): 7.0 | Preemergence herbicidal rating ORYSAT (ORYSAT (Rice, Tebonnet); rate 0.0156 kg/ha): 0.0 | Preemergence herbicidal rating ORYSAT (ORYSAT (Rice, Tebonnet); rate 0.0313 kg/ha): 0.0 | Preemergence herbicidal rating ORYSAT (ORYSAT (Rice, Tebonnet); rate 0.0625 kg/ha): 1.0 | Preemergence herbicidal rating ORYSAT (ORYSAT (Rice, Tebonnet); rate 0.1250 kg/ha): 4.0 | Preemergence herbicidal rating ORYSAT (ORYSAT (Rice, Tebonnet); rate 0.2500 kg/ha): 6.0 | MOOVA herbicidal effect rating (MOOVA (Monochoria); 0.0313 kg/ha): 4.0 | MOOVA herbicidal effect rating (MOOVA (Monochoria); 0.0625 kg/ha): 9.0 | MOOVA herbicidal effect rating (MOOVA (Monochoria); 0.1250 kg/ha): 9.0 | MOOVA herbicidal effect rating (MOOVA (Monochoria); 0.2500 kg/ha): 9.0 | SAGPY herbicidal effect rating ([12]; 0.0313 kg/ha): 0.0 | SAGPY herbicidal effect rating ([12]; 0.0625 kg/ha): 0.0 | SAGPY herbicidal effect rating ([12]; 0.1250 kg/ha): 3.0 | SAGPY herbicidal effect rating ([12]; 0.2500 kg/ha): 6.0
